How the values were obtained:
[1] = system: a-smooth muscle actin protein level in AB8/13 human podocytes; assay: Western blotting of α-smooth muscle actin protein level in differentiated AB8/13 human podocytes; assay type: cell-based; conditions: FIG. 2; substance alone (without TGF-β1), compared to dimethyl sulfoxide; 6 days incubation
Experimental: (§1) Firstly, AB8/13 human podocytes were incubated in a 33[…] incubator containing 5% carbon dioxide until they grew to a confluence of 80%. The cells were transferred to a 37.5[…] incubator containing 5% carbon dioxide to be incubated for 14 days so that the cells were differentiated. After which, the differentiated cells were incubated with culture medium containing various substances for 6 days. Finally, total protein of the differentiated cells treated with various substances was extracted for Western blotting assay.
(§2) As stated in Diabetes, 2011 Jun; 60(6): 1779-1788, transforming growth factor-β1 (TGF-β1) is greatly expressed in the renal tissue of a diabetic nephropathy patient. This paper further has reported that transforming growth factor-β1 can dedifferentiate differentiated podocytes and induce the disappearance of pseudopods. As stated in Cell Tissue Res. 2012 Jan; 347(1): 141-54, transforming growth factor-β1 participates in renal fibrosis, renal parenchyma degeneration and loss of function associated with chronic kidney disease. For the above reasons, podocytes treated with transforming growth factor-β1 can be used as a cell culture model for renal disease.

[2] = system: nephrin protein level in AB8/13 human podocytes; assay: Western blotting of nephrin protein level in differentiated AB8/13 human podocytes; assay type: cell-based; conditions: FIG. 1; substance alone, compared to dimethyl sulfoxide; 6 days incubation
Experimental: as §1, §2

transforming growth factor-β1
a-smooth muscle actin protein level [1]: upregulate | nephrin protein level [2]: downregulate

Source: US20190374590A1, “USE OF CORDYCEPS MILITARIS EXTRACT FOR TREATMENT OF RENAL DISEASE” (Nan Pao Resins Chemical Co., Ltd., priority 2018, published 2019)
